Data taken from patent US20060069132A1, “Azolecarboxamide herbicides” (priority 2004, published 2006).

Columns and labels:
barnyardgrass [1] = test: Test A pre-/postemergence herbicide test; format: in vivo, Echinochloa crus-galli
How it was run: (§1)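 Visual injury rating on a 0–100 scale (0 no effect, 100 complete control) versus untreated controls, about ten days after treatment in greenhouse. Pre: directed soil spray onto seeded sandy loam. Post: spray to runoff on plants 2–10 cm tall at one- to two-leaf stage.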

large crabgrass [2] = test: Test A pre-/postemergence herbicide test; format: in vivo, Digitaria sanguinalis
How it was run: as §1

giant foxtail [3] = test: Test A pre-/postemergence herbicide test; format: in vivo, Setaria faberi
How it was run: as §1

morningglory [4] = test: Test A pre-/postemergence herbicide test; format: in vivo, Ipomoea spp.
How it was run: as §1

redroot pigweed = test: Test A pre-/postemergence herbicide test; format: in vivo, Amaranthus retroflexus
How it was run: as §1

velvetleaf [5] = test: Test A pre-/postemergence herbicide test; format: in vivo, Abutilon theophrasti
How it was run: as §1

barnyardgrass [6] = test: Test B pre-/postemergence herbicide test; format: in vivo, Echinochloa crus-galli; settings: for Barnyardgrass plant response rating: postemergence
How it was run: (§2)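 Visual rating, 0 (no effect) to 100 (complete control), versus untreated controls after 13–15 d in greenhouse. Pre- and postemergence applications (postemergence plants 2–18 cm, 1–4 leaves); flooded paddy arm at 2-leaf stage. Compounds in non-phytotoxic solvent plus surfactant.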

Surinam grass = test: Test B pre-/postemergence herbicide test; format: in vivo, Urochloa decumbens; settings: for Surinam Grass plant response rating: postemergence
How it was run: (§3)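 Greenhouse pot assay with simultaneous preemergence (treated seed) and postemergence (2–18 cm seedlings) applications of surfactant-containing, non-phytotoxic solvent formulations. Response scored visually 13–15 days later on a 0–100 scale, 100 meaning complete control.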

cocklebur = test: Test B pre-/postemergence herbicide test; format: in vivo, Xanthium strumarium; settings: for Cocklebur plant response rating: postemergence
How it was run: as §2

corn = test: Test B pre-/postemergence herbicide test; format: in vivo, Zea mays; settings: for Corn plant response rating: postemergence
How it was run: as §3

large crabgrass [7] = test: Test B pre-/postemergence herbicide test; format: in vivo, Digitaria sanguinalis; settings: for Crabgrass, Large plant response rating: postemergence
How it was run: as §3

giant foxtail [8] = test: Test B pre-/postemergence herbicide test; format: in vivo, Setaria faberi; settings: for Foxtail, Giant plant response rating: postemergence
How it was run: as §3

lambsquarters = test: Test B pre-/postemergence herbicide test; format: in vivo, Chenopodium album; settings: postemergence
How it was run: as §3

morningglory [9] = test: Test B pre-/postemergence herbicide test; format: in vivo, Ipomoea coccinea; settings: for Morningglory plant response rating: postemergence
How it was run: as §2

pigweed = test: Test B pre-/postemergence herbicide test; format: in vivo, Amaranthus retroflexus; settings: for Pigweed plant response rating: postemergence
How it was run: as §3

rice [10] = test: Test B pre-/postemergence herbicide test; format: in vivo, Oryza sativa; settings: 0 = no effect, 100 = complete control, preemergence
How it was run: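 Species tested were Echinochloa crus-galli, Ipomoea coccinea, Xanthium strumarium and Oryza sativa, treated both before emergence and at the 1- to 4-leaf stage; rice and barnyardgrass were also tested under flooding at 2 leaves. Greenhouse incubation lasted 13–15 days before visual 0–100 scoring.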

velvetleaf [11] = test: Test B pre-/postemergence herbicide test; format: in vivo, Abutilon theophrasti; settings: for Velvetleaf plant response rating: postemergence
How it was run: as §3

blackgrass = test: Test B postemergence herbicide test; format: in vivo, Alopecurus myosuroides; settings: postemergence
How it was run: (§4)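 Visual ratings, 0 (no effect) to 100 (complete control), made versus controls after 13–15 d greenhouse. Paddy plants treated at 2-leaf stage; postemergence plants at 1- to 4-leaf stage, 2–18 cm tall.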

wheat = test: Test B postemergence herbicide test; format: in vivo, Triticum aestivum; set-up: key to Wheat plant response rating: 0 = no effect, 100 = complete control; settings: postemergence
How it was run: (§5)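 Treated at 2-leaf (paddy) or 1–4-leaf, 2–18 cm (postemergence); greenhouse 13–15 d; visual score vs control, 0 none to 100 complete control; dash = not tested.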

wild oat = test: Test B postemergence herbicide test; format: in vivo, Avena fatua; settings: postemergence
How it was run: as §5

rice [12] = test: Test B flooded paddy test; format: in vivo, Oryza sativa; settings: 1000 g ai/ha, scale 0 to 100 (0 no effect, 100 complete control)
How it was run: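 Greenhouse test; postemergence application to plants at 1–4 leaves (2–18 cm); paddy species at 2 leaves; evaluated visually vs controls at 13–15 days; scale 0–100 (100 = complete control).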

[13] = test system: small flower umbrella sedge; test: Test B flooded paddy test; format: in vivo, Cyperus difformis; settings: 1000 g ai/ha, scale 0 to 100 (0 no effect, 100 complete control)
How it was run: as §4

ducksalad = test: Test B flooded paddy test; format: in vivo, Heteranthera limosa; settings: 1000 g ai/ha, scale 0 to 100 (0 no effect, 100 complete control)
How it was run: as §4

barnyardgrass [14] = test: Test B flooded paddy test; format: in vivo, Echinochloa crus-galli; settings: 1000 g ai/ha, scale 0 to 100 (0 no effect, 100 complete control)
How it was run: as §4

[15] = Postemergence, 500 g ai/ha, 0 to 100 scale, 0 no effect, 100 complete control
[16] = Postemergence, 2000 g ai/ha, 0 to 100 scale, 0 no effect, 100 complete control
[17] = Preemergence, 2000 g ai/ha, visual rating, 0 to 100 scale (0 no effect, 100 complete control)
[18] = preemergence, 500 g ai/ha, visual injury, 0 to 100 scale (0 no effect, 100 complete control)
[19] = 125 g ai/ha, 0 = no effect, 100 = complete control, preemergence
[20] = 500 g ai/ha, visual rating, 0 = no effect, 100 = complete control, preemergence
[21] = 125 g ai/ha, visual rating, scale 0 (no effect) to 100 (complete control)
[22] = 500 g ai/ha, scale 0 to 100, 0 is no effect, 100 is complete control

Compound: CCn1nc(C(C)(C)C)cc1C(=O)Nc1cc(C(=O)N(C)C)c(F)cc1F [Compound 270]
- Barnyardgrass plant response rating (barnyardgrass [1]; [15]): 0
- Plant response rating, Barnyardgrass (barnyardgrass [1]; [16]): 30
- Barnyardgrass plant response rating (barnyardgrass [1]; [17]): 90
- Barnyardgrass plant response rating (barnyardgrass [1]; [18]): 60
- Crabgrass, Large plant response rating (large crabgrass [2]; [15]): 0
- Plant response rating, Crabgrass, Large (large crabgrass [2]; [16]): 10
- Crabgrass, Large plant response rating (large crabgrass [2]; [17]): 35
- Crabgrass, Large plant response rating (large crabgrass [2]; [18]): 5
- Foxtail, Giant plant response rating (giant foxtail [3]; [15]): 0
- Plant response rating, Foxtail, Giant (giant foxtail [3]; [16]): 0
- Foxtail, Giant plant response rating (giant foxtail [3]; [17]): 70
- Foxtail, Giant plant response rating (giant foxtail [3]; [18]): 20
- Morningglory plant response rating (morningglory [4]; [15]): 20
- Plant response rating, Morningglory (morningglory [4]; [16]): 20
- Morningglory plant response rating (morningglory [4]; [17]): 30
- Morningglory plant response rating (morningglory [4]; [18]): 0
- Pigweed plant response rating (redroot pigweed; [15]): 20
- Plant response rating, Pigweed (redroot pigweed; [16]): 0
- Pigweed plant response rating (redroot pigweed; [17]): 85
- Pigweed plant response rating (redroot pigweed; [18]): 15
- Velvetleaf plant response rating (velvetleaf [5]; [15]): 15
- Plant response rating, Velvetleaf (velvetleaf [5]; [16]): 25
- Velvetleaf plant response rating (velvetleaf [5]; [17]): 55
- Velvetleaf plant response rating (velvetleaf [5]; [18]): 30
- Barnyardgrass plant response rating (0 to 100 scale) (barnyardgrass [6]; [19]): 0
- Plant response rating, Barnyardgrass (barnyardgrass [6]; [20]): 50
- Barnyardgrass plant response rating (barnyardgrass [6]; [21]): 0
- Barnyardgrass plant response rating (barnyardgrass [6]; [22]): 0
- Surinam Grass plant response rating (0 to 100 scale) (Surinam grass; [19]): 0
- Plant response rating, Surinam Grass (Surinam grass; [20]): 20
- Surinam Grass plant response rating (Surinam grass; [21]): 0
- Surinam Grass plant response rating (Surinam grass; [22]): 10
- Cocklebur plant response rating (0 to 100 scale) (cocklebur; [19]): 0
- Plant response rating, Cocklebur (cocklebur; [20]): 0
- Cocklebur plant response rating (cocklebur; [21]): 0
- Cocklebur plant response rating (cocklebur; [22]): 0
- Corn plant response rating (0 to 100 scale) (corn; [19]): 0
- Plant response rating, Corn (corn; [20]): 50
- Corn plant response rating (corn; [21]): 0
- Corn plant response rating (corn; [22]): 10
- Crabgrass, Large plant response rating (0 to 100 scale) (large crabgrass [7]; [19]): 0
- Plant response rating, Crabgrass, Large (large crabgrass [7]; [20]): 20
- Crabgrass, Large plant response rating (large crabgrass [7]; [21]): 0
- Crabgrass, Large plant response rating (large crabgrass [7]; [22]): 0
- Foxtail, Giant plant response rating (0 to 100 scale) (giant foxtail [8]; [19]): 0
- Plant response rating, Foxtail, Giant (giant foxtail [8]; [20]): 50
- Foxtail, Giant plant response rating (giant foxtail [8]; [21]): 0
- Foxtail, Giant plant response rating (giant foxtail [8]; [22]): 0
- Lambsquarters plant response rating (lambsquarters; [21]): 0
- Lambsquarters plant response rating (lambsquarters; [22]): 10
- Morningglory plant response rating (0 to 100 scale) (morningglory [9]; [19]): 0
- Plant response rating, Morningglory (morningglory [9]; [20]): 0
- Morningglory plant response rating (morningglory [9]; [21]): 0
- Morningglory plant response rating (morningglory [9]; [22]): 10
- Pigweed plant response rating (0 to 100 scale) (pigweed; [19]): 0
- Pigweed plant response rating (pigweed; [21]): 0
- Pigweed plant response rating (pigweed; [22]): 0
- Rice plant response rating (0 to 100 scale) (rice [10]; 125 g ai/ha): 0
- Plant response rating, Rice (rice [10]; 500 g ai/ha, visual rating): 60
- Velvetleaf plant response rating (0 to 100 scale) (velvetleaf [11]; [19]): 50
- Plant response rating, Velvetleaf (velvetleaf [11]; [20]): 70
- Velvetleaf plant response rating (velvetleaf [11]; [21]): 0
- Velvetleaf plant response rating (velvetleaf [11]; [22]): 0
- Blackgrass plant response rating (blackgrass; [21]): 0
- Blackgrass plant response rating (blackgrass; [22]): 20
- Wheat plant response rating (wheat; [21]): 0
- Wheat plant response rating (wheat; [22]): 0
- Oat, Wild plant response rating (wild oat; [21]): 0
- Oat, Wild plant response rating (wild oat; [22]): 0
- Rice plant response rating (rice [12]): 70
- Sedge, Umbrella plant response rating [13]: 60
- Ducksalad plant response rating (ducksalad): 70
- Barnyardgrass plant response rating (barnyardgrass [14]): 50
